Data from patent publication US20220372040A1, “METTL3 MODULATORS” (Accent Therapeutics, Inc., priority 2020, published 2022).

Tests used:
Format in all cases: cell-based
MOLM-13 cells [1] = assay: MOLM-13 96 Hour cell proliferation assay (Cell Titer-Glo); conditions: Homo sapiens
Method in brief: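 MOLM-13 cells were seeded at 600 cells/well in RPMI 1640 with 10% FBS, then incubated overnight. Compounds were added at 0.25% DMSO final for 96 h at 37° C, with CellTiter-Glo luminescence read-out. Values normalized to staurosporine (100% death) and DMSO (0%); IC50 from 4-parameter logistic fit.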

[2] = system: m^6 A in cellular mRNA of MOLM-13 cells; assay: m^6 A-mRNA LC-MS/MS assay (m^6 A cellular assay); conditions: Homo sapiens, 24 hours incubation, LC-MS/MS of m^6 A/A in mRNA
Description: m^6 A-mRNA LC-MS/MS Assay
5×10^6 MOLM-13 (DSMZ) cells were seeded into 10 cm dishes in RPMI 1640 media containing 10% fetal bovine serum and placed in a humidified tissue culture incubator at 37° C. overnight. Compounds were resuspended in 100% DMSO and dosed into each dish at a fixed concentration to comprise an 8-point dose response with a 4-fold serial dilution ranging from 25 μM to 1.5 nM in 0.25% DMSO final and allowed to incubate for 24 hours in a humidified tissue culture incubator at 37° C. Cells were harvested by centrifugation followed by mRNA extraction using DTRECT Dynabeads mRNA DTRECT kit (Life Technologies). mRNA was quantified on NanoDrop spectrophotometer (Thermo Fisher Scientific) and digested into single nucleosides using Nucleoside Digestion Mix (New England Biolabs). Nucleosides are quantified with retention time on a BEH […] column (Waters) and the nucleoside-to-base ion mass transition of 282.1-150.1 (m^6 A) and 268-136 (A) on an API 6500+ triple quadrupole mass spectrometer. Quantification is performed in comparison with the standard curve, obtained from pure nucleoside standards (Selleck Chemicals) running with the same batch of samples. Percentage m^6 A in cellular mRNA is calculated as 100*(m^6 A/A).

MOLM-13 cells [3] = assay: MOLM-13 48 Hour cell proliferation assay (Cell Titer-Glo); conditions: Homo sapiens
Description: MOLM-13 48 Hour Cell Proliferation Assay
MOLM-13 (DSMZ) cells were seeded at 1000 cells per well in a volume of 44 μL in a Falcon 384-well tissue culture treated clear bottom microplate in RPMI 1640 media containing 10% fetal bovine serum using a Multidrop Combi (ThermoFisher Scientific). Cells were incubated overnight at 37° C. in a humidified tissue culture incubator. The Mosquito® HTS Liquid Handler was used to make a compound/media intermediate plate by aliquoting […] of compound from the initial compound dilution plate (concentrations ranging from 10.0 mM to 38.0 nM in 100% DMSO) into a V bottom 384-well screen matrix plate containing 49 µL of media containing the appropriate serum (50-fold dilution, 2% DMSO). The Apricot liquid handling system was used to transfer […] compounds from the intermediate plate into the Falcon 384-well tissue culture plate containing 44 μL cells (10-point, 4-fold dilution spanning concentrations 25.0 μM to […], 0.25% DMSO final), and placed in a humidified tissue culture incubator at 37° C. After 48 hours, 25 μL of Cell Titer-Glo reagent (Promega) was added to each well using a Multidrop Combi. The plate was protected from light and placed on an IKA plate shaker for at 300 rpm for 10 minutes at room temperature. The plate was read on an EnVision plate reader (Perkin Elmer) using the Ultra Sensitive Luminescence protocol. Data analysis was performed by normalizing the raw luminescence units to an average of the positive control values for staurosporine (100% cell death) and the negative control values for DMSO (0% cell death). An IC50 was calculated using a 4-parameter logistic nonlinear regression model in GraphPad Prism.

With `CNc1ccc2ccc(CCc3cncc(-n4cc(F)c5c(N)ncnc54)c3)cc2n1` [Compound I-116] the IC50 (MOLM-13 cells [1]) was 1000 to 10000 nM.

Work on `CCNc1ccc2ccc(OCc3cncc(-n4cc(-c5ccn(C)n5)c5c(N)ncnc54)c3)cc2n1` [Compound I-128] yielded an IC50 [2] of 1000 to 10000 nM and an IC50 (MOLM-13 cells [1]) of 1000 to 10000 nM.

With `CNc1ccc2ccc(OCc3cncc(-n4cc([C@@H]5CCCO5)c5c(N)ncnc54)c3)cc2n1` [Compound I-113] the IC50 [2] was < 1000 nM and the IC50 (MOLM-13 cells [1]) was 1000 to 10000 nM.

`CNc1ccc2ccc(CCc3cncc(-n4ccc5c(N)ncnc54)c3)cc2n1` [Compound I-30] was tested, and the IC50 [2] was 1000 to 10000 nM and the IC50 (MOLM-13 cells [3]) was 1000 to 10000 nM.

In the case of `CCc1cc(N2CCC(F)(F)CC2)c2ccc(OCc3cncc(-n4ccc5c(N)ncnc54)c3)cc2n1` [Compound I-118], the IC50 (MOLM-13 cells [1]) is reported as 1000 to 10000 nM.

`CCc1cc(NCCOC)c2ccc(CCc3cncc(-n4cc(-c5ccn(C)n5)c5c(N)ncnc54)c3)cc2n1` [Compound I-115] was tested, and the IC50 [2] was < 1000 nM and the IC50 (MOLM-13 cells [1]) was < 1000 nM.

For `CCNc1ccc2ccc(OCc3cccc(-n4cc(Cl)c5c(N)ncnc54)c3)cc2n1` [Compound I-61], the IC50 (MOLM-13 cells [1]) was 1000 to 10000 nM.

In the case of `CNc1ccc2ccc(OCc3cncc(-n4cc(CC5CC5)c5c(N)ncnc54)c3)cc2n1` [Compound I-29], the IC50 [2] is reported as 1000 to 10000 nM and the IC50 (MOLM-13 cells [3]) is reported as < 1000 nM.

With `CNc1ccc2ccc(OCc3cncc(-n4c(C)cc5c(N)ncnc54)c3)cc2n1` [Compound I-36] the IC50 [2] was 1000 to 10000 nM and the IC50 (MOLM-13 cells [3]) was 1000 to 10000 nM.

With `Nc1ncnc2c1c(C1CCCO1)cn2-c1cncc(CCc2ccc3ccc(N4CCC4)nc3c2)c1` (stereo not shown) [Compound I-126] the IC50 [2] was 1000 to 10000 nM and the IC50 (MOLM-13 cells [1]) was 1000 to 10000 nM.

`CNc1ccc2ccc(OCc3cc(Br)cc(-n4cc(Cl)c5c(N)ncnc54)c3)cc2n1` [Compound I-75] gave an IC50 (MOLM-13 cells [1]) of 1000 to 10000 nM.

`CNc1ccc2ccc(OCc3cncc(-n4cc(C5CCCC5)c5c(N)ncnc54)c3)cc2n1` [Compound I-58] was tested, and the IC50 [2] was 1000 to 10000 nM, the IC50 (MOLM-13 cells [3]) was < 1000 nM and the IC50 (MOLM-13 cells [1]) was < 1000 nM.

In the case of `CCc1cc(N(C)CCOC)c2ccc(CCc3cncc(-n4cc(-c5ccn(C)n5)c5c(N)ncnc54)c3)cc2n1` [Compound I-117], the IC50 [2] is reported as < 1000 nM and the IC50 (MOLM-13 cells [1]) is reported as < 1000 nM.

Work on `CNc1ccc2ccc(OCc3cncc(-n4cc(C(C)C5CC5)c5c(N)ncnc54)c3)cc2n1` (stereo not shown) [Compound I-120] yielded an IC50 (MOLM-13 cells [1]) of 1000 to 10000 nM.

In the case of `CNc1ccc2cc(CCc3cccc(-n4cc(Cl)c5c(N)ncnc54)c3)ccc2n1` [Compound I-70], the IC50 [2] is reported as ≥ 10000 nM, the IC50 (MOLM-13 cells [3]) is reported as 1000 to 10000 nM and the IC50 (MOLM-13 cells [1]) is reported as 1000 to 10000 nM.

For `CNc1ccc2ccc(OCc3cncc(-n4cc([C@H]5CCCO5)c5c(N)ncnc54)c3)cc2n1` [Compound I-112], the IC50 [2] was 1000 to 10000 nM and the IC50 (MOLM-13 cells [1]) was < 1000 nM.

In the case of `Cn1ccc(-c2cn(-c3cncc(CCc4ccc5cc(Br)c(N)nc5c4)c3)c3ncnc(N)c23)n1` [Compound I-123], the IC50 (MOLM-13 cells [1]) is reported as 1000 to 10000 nM.

With `Cn1ccc(-c2cn(-c3cncc(CCc4ccc5ccc(N)nc5c4)c3)c3ncnc(N)c23)n1` [Compound I-114] the IC50 (MOLM-13 cells [1]) was 1000 to 10000 nM.

With `CCc1cc(N2CCNCC2)c2ccc(OCc3cncc(-n4cc(-c5ccn(C)n5)c5c(N)ncnc54)c3)cc2n1` [Compound I-121] the IC50 [2] was 1000 to 10000 nM and the IC50 (MOLM-13 cells [1]) was < 1000 nM.

For `CNc1ccc2ccc(OCc3cc(CO)cc(-n4cc(Cl)c5c(N)ncnc54)c3)cc2n1` [Compound I-34], the IC50 [2] was ≥ 10000 nM and the IC50 (MOLM-13 cells [3]) was < 1000 nM.

In the case of `CNc1ccc2ccc(OCc3cccc(-n4cc(Cl)c5c(N)ncnc54)c3)cc2n1` [Compound I-87], the IC50 (MOLM-13 cells [3]) is reported as 1000 to 10000 nM and the IC50 (MOLM-13 cells [1]) is reported as 1000 to 10000 nM.

In the case of `C[C@@H]1CCN1c1ccc2ccc(OCc3cncc(-n4cc(C5CCCC5)c5c(N)ncnc54)c3)cc2n1` [Compound I-124], the IC50 (MOLM-13 cells [1]) is reported as 1000 to 10000 nM.

In the case of `CCc1cc(NCCCN(C)C)c2ccc(CCc3cncc(-n4ccc5c(N)ncnc54)c3)cc2n1` [Compound I-127], the IC50 (MOLM-13 cells [1]) is reported as ≥ 10000 nM.

For `Nc1nc2cc(OCc3cncc(-n4ccc5c(N)ncnc54)c3)ccc2cc1Br` [Compound I-111], the IC50 (MOLM-13 cells [1]) was ≥ 10000 nM.

`CNc1ccc2ccc(OCc3cncc(-n4cc(-c5ccnn5C)c5c(N)ncnc54)c3)cc2n1` [Compound I-35] was tested, and the IC50 [2] was ≥ 10000 nM and the IC50 (MOLM-13 cells [3]) was < 1000 nM.

`CNc1ccc2ccc(OCc3cncc(-n4cc(Cl)c5c(N)ncnc54)c3)cc2n1` [Compound I-74, 7-((5-(4-amino-5-chloro-7H-pyrrolo[2,3-d]pyrimidin-7-yl)pyridin-3-yl)methoxy)-N-methylquinolin-2-amine] showed an IC50 [2] of 1000 to 10000 nM, an IC50 (MOLM-13 cells [3]) of 1000 to 10000 nM and an IC50 (MOLM-13 cells [1]) of 1000 to 10000 nM.

`CNc1ccc2ccc(OCc3cncc(-n4cc(-c5ccc(C)o5)c5c(N)ncnc54)c3)cc2n1` [Compound I-234] was tested, and the IC50 [2] was 1000 to 10000 nM and the IC50 (MOLM-13 cells [1]) was 1000 to 10000 nM.

With `CNc1ccc2ccc(OCc3cncc(-n4cc(-c5ncco5)c5c(N)ncnc54)c3)cc2n1` [Compound I-235] the IC50 (MOLM-13 cells [1]) was ≥ 10000 nM.

`CCc1cc(NC)c2ccc(CCc3cncc(-n4cc(-c5ccn(C)n5)c5c(N)ncnc54)c3)cc2n1` [Compound I-122] was tested, and the IC50 (MOLM-13 cells [1]) was < 1000 nM.
